Earlier results as cited in US20020072734A1, “Chip systems for the controlled emission of substances having a chemosensory effect” (PHARMED HOLDING GMBH, priority 2000, published 2002).
Like-named read-outs stand apart in the source and are kept apart here.

Key:
regio olfactoria [1] = conditions: mice; applied to the regio olfactoria
regio olfactoria [2] = conditions: rats; applied to the regio olfactoria

In the case of `CC[C@H](C)[C@@H]1NC(=O)[C@H](Cc2ccc(O)cc2)NC(=O)[C@@H](N)CSSC[C@@H](C(=O)N2CCC[C@H]2C(=O)N[C@@H](CC(C)C)C(=O)NCC(N)=O)NC(=O)[C@H](CC(N)=O)NC(=O)[C@H](CCC(N)=O)NC1=O` [oxytocin], the “rapid effects in the central nervous system (anxiety)” value (regio olfactoria [1]) is given as “relieved anxiety”, the “rapid effects in the central nervous system (depression, aggression)” value (regio olfactoria [1]) is given as “anti-depressive and anti-aggressive” and the “rapid effects in the central nervous system (anxiety)” value (regio olfactoria [2]) is given as “relieved anxiety”. For the same compound, the “rapid effects in the central nervous system (depression, aggression)” value (regio olfactoria [2]) was “anti-depressive and anti-aggressive”.
